Laboratory results as given in US20110130375A1 (priority 2008, published 2011).

Key:
[1] = test system: isolated rabbit thoracic aorta preparations; assay: Assay on vascular tone (vasorelaxation of methoxamine-precontracted aortic rings); assay type: cell-based; conditions: for EC50: Oryctolagus cuniculus, read-out: EC50 (concentration producing 50% of the maximum relaxation)
Description: The ability of the compounds of the invention to induce vasorelaxation in comparison to precursor compound, was tested in vitro in isolated rabbit thoracic aorta preparations (Wanstall J. C. et al., Br. J. Pharmacol., 134:463-472, 2001).
Male New Zealand rabbits (1, 8-2 Kg) were used. The animals were anaesthetized with sodium thiopental (50 mg/kg, iv), sacrificed by exsanguinations and then the thorax was opened and the aorta dissected. The aortas were placed immediately in Krebs-HEPES buffer (pH 7.4; composition mM: NaCl 130.0, KCl 3.7, NaHCO3 14.9, KH2PO4 1.2, MgSO4⊙7H2O 1.2, Glucose 11.0, HEPES 10.0, CaCl2.2H2O 1.6) and cut into ring segments (4-5 mm in length). Each ring was placed in a 5 ml tissue bath filled with Krebs-HEPES buffer (37° C.) aerated with 95% O2 and 5% CO2 and was then attached to a force transducer (Grass FT03), connected to a BIOPAC MP150 System for measurement of the isometric tension^2. The preparations were allowed to equilibrate for 1 h at a resting tension of 2 g with changes of the buffer every 15 minutes and then stimulated by exposure to 90 mM KCl (3 times) with intervening washings. After equilibration, the rings were precontracted submaximally with methoxamine (3 μM) and, when the contraction reach a steady state a cumulative concentration-response curve to the test compounds was obtained. The time intervals between doses were based on the time needed to reach a full a steady state response.
Responses to test compounds were expressed as a percentage of residual contraction and plotted against concentration of test compound. EC50 values (where EC50 is the concentration producing 50% of the maximum relaxation to the test compound) were interpolated from these plots.

[2] = test system: corticosteroid-induced glaucoma; conditions: rabbit, administered topically twice a day; cited from earlier work

SMILES | EC50 [1] | other results
COc1cc(C(=O)OCCCCO[N+](=O)[O-])ccc1OC(=O)OCC(=O)[C@@]1(OC(=O)CCCO[N+](=O)[O-])[C@@H](C)CC2C3CCC4=CC(=O)C=C[C@]4(C)[C@@]3(F)[C@@H](O)C[C@@]21C (stereo partly drawn) [Compound (3), 4-(nitrooxy)butyl 4-((2-((9R,10S,11S,13S,16S,17R)-9-fluoro-11-hydroxy-10,13,16-trimethyl-17-(4-(nitrooxy)butanoyloxy)-3-oxo-6,7,8,9,10,11,12,13,14,15,16,17-dodecahydro-3H-cyclopenta[a]phenanthren-17-yl)-2-oxoethoxy)carbonyloxy)-3-methoxybenzoate] | 1140 ± 480 nM | –
C[C@@H]1C[C@H]2[C@@H]3CCC4=CC(=O)C=C[C@]4(C)[C@@]3(F)[C@@H](O)C[C@]2(C)[C@@]1(O)C(=O)COC(=O)c1ccc(CO[N+](=O)[O-])cc1 [dexamethasone 21-[(4-nitrooxymethyl)]benzoate] | – | effects in corticosteroid-induced glaucoma (intraocular pressure, retro bulbar circulation, ciliary body morphology) [2]: may prevent the intraocular pressure increase, the impairment of retro bulbar circulation, and the morphological changes in the ciliary bodies
C[C@H]1CC2C3CCC4=CC(=O)C=C[C@]4(C)[C@@]3(F)[C@@H](O)C[C@]2(C)[C@@]1(OC(=O)CCCO[N+](=O)[O-])C(=O)COC(=O)CCCO[N+](=O)[O-] (stereo partly drawn) [Compound (2), (9R,10S,11S,13S,16S,17R)-9-fluoro-11-hydroxy-10,13,16-trimethyl-17-(2-(4-(nitrooxy)butanoyloxy)acetyl)-3-oxo-6,7,8,9,10,11,12,13,14,15,16,17-dodecahydro-3H-cyclopenta[a]phenanthren-17-yl 4-(nitrooxy)butanoate] | 1680 ± 610 nM | –
C[C@H]1C[C@H]2[C@@H]3CCC4=CC(=O)C=C[C@]4(C)[C@@]3(F)[C@@H](O)C[C@]2(C)[C@@]1(O)C(=O)CO [betamethasone, Betamethasone] | – | EC50 (concentration producing 50% of the maximum relaxation) ([1]; rabbit aortic rings precontracted with methoxamine (3 μM), cumulative concentration-response curve): no effect
